Laboratory results published in US10793564B2, “Amino acid compounds and methods of use” (Pliant Therapeutics, Inc., priority 2018, dated 2020).

Molecular target: recombinant human integrin αVβ6 (Homo sapiens (Human), UniProt P06756+P18564)
Assay: Solid phase integrin αVβ6 binding assay
Conditions: inhibition of recombinant TGFβ1 LAP binding to coated integrin, IC50 presented in four ranges, read-out: αvβ6 Inhibition IC50 (nM) - range
Summary of the method: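 Plates coated with recombinant human αVβ6 (2 μg/mL) and blocked; compounds competed with TGFβ1 LAP (0.67 μg/mL) in Mn2+ (0.5 mM)/BSA/sucrose TBS for 2 h at 25° C. Bound LAP detected by biotin anti-LAP and peroxidase-streptavidin; IC50 by four-parameter logistic fit.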

Sequence of recombinant human integrin αVβ6 (P06756 31-992): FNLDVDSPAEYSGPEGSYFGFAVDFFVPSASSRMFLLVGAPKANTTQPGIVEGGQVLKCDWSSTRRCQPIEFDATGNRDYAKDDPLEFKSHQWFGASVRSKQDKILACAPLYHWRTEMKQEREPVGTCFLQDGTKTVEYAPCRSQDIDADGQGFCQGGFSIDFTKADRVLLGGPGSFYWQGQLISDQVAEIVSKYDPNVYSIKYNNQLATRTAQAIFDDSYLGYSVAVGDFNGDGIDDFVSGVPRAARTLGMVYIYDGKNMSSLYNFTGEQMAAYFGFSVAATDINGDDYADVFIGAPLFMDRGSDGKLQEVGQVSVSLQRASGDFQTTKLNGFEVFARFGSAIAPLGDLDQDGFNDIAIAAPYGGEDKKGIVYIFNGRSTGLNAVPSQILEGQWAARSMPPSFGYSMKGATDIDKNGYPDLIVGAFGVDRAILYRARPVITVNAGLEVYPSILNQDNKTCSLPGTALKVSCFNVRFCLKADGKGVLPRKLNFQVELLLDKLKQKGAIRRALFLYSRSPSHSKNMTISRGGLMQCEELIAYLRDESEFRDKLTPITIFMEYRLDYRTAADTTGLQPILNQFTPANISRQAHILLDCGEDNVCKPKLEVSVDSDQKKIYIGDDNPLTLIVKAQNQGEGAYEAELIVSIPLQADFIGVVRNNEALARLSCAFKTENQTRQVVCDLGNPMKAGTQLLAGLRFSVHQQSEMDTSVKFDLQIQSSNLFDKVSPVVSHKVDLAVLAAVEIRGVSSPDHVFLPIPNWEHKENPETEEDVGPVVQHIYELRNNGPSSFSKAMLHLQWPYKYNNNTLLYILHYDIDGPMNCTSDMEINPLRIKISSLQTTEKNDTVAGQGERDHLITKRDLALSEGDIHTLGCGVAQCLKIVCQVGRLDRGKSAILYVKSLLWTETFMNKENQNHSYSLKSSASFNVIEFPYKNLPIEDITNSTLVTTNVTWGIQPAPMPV
Sequence of recombinant human integrin αVβ6 (P18564 22-707): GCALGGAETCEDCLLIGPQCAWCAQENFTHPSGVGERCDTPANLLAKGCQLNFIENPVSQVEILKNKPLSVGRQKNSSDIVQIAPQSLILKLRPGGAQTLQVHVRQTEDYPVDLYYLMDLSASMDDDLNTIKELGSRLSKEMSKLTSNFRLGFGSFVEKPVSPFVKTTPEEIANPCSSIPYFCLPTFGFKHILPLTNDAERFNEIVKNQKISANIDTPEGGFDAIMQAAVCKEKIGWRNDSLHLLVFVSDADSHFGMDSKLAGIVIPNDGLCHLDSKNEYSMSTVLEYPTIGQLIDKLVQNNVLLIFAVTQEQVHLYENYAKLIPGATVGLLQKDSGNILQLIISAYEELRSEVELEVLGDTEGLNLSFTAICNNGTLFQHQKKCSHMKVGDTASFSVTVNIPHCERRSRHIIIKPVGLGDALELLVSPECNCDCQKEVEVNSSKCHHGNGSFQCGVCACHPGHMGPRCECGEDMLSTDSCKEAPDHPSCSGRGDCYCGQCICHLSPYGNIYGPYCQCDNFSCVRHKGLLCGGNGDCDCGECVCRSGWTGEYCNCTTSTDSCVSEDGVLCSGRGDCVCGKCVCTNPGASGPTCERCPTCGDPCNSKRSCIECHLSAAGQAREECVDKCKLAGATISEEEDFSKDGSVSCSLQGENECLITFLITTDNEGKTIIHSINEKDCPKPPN

IC50 [nM]	Structure (SMILES)
> 1000	CS(=O)(=O)CCN(CCCCc1ccc2c(n1)NCCC2)CC[C@H](Nc1ncc(Br)cn1)C(=O)O [Compound 103, (S)-2-((5-bromopyrimidin-2-yl)amino)-4-((2-(methylsulfonyl)ethyl) (4-(5,6,7,8-tetrahydro-1,8-naphthyridin-2-yl)butyl)amino) butanoic Acid]
< 50	O=C(O)[C@H](CCN(CCCCc1ccc2c(n1)NCCC2)CCOCC(F)(F)F)Nc1ncnc2ccccc12 [Compound 39, (S)-2-(quinazolin-4-ylamino)-4-((4-(5,6,7,8-tetrahydro-1,8-naphthyridin-2-yl)butyl) (2-(2,2,2-trifluoroethoxy)ethyl)amino) butanoic Acid]
< 50	COCCN(CCCCc1ccc2c(n1)NCCC2)CC[C@H](Nc1ccnc(C(F)(F)F)n1)C(=O)O [Compound 24, (S)-4-((2-methoxyethyl) (4-(5,6,7,8-tetrahydro-1,8-naphthyridin-2-yl)butyl)amino)-2-((2-(trifluoromethyl)pyrimidin-4-yl)amino) butanoic Acid]
< 50	COC[C@@H](F)CN(CCCCc1ccc2c(n1)NCCC2)CC[C@H](Nc1nc(C)nc2cc(F)ccc12)C(=O)O [Compound 32, (S)-2-((7-fluoro-2-methylquinazolin-4-yl)amino)-4-(((S)-2-fluoro-3-methoxypropyl) (4-(5,6,7,8-tetrahydro-1,8-naphthyridin-2-yl)butyl)amino) butanoic Acid]
50 to 250	O=C(O)[C@H](CCN(CCCCc1ccc2c(n1)NCCC2)C1CC1)Nc1ncnc2[nH]ncc12 [Compound 116, (S)-2-((1H-pyrazolo[3,4-d]pyrimidin-4-yl)amino)-4-(cyclopropyl(4-(5,6,7,8-tetrahydro-1,8-naphthyridin-2-yl)butyl)amino) butanoic Acid]
< 50	O=C(O)[C@H](CCN(CCCCc1ccc2c(n1)NCCC2)CCOc1ccccn1)Nc1ncnc2ccccc12 [Compound 49, (S)-4-((2-(pyridin-2-yloxy)ethyl) (4-(5,6,7,8-tetrahydro-1,8-naphthyridin-2-yl)butyl)amino)-2-(quinazolin-4-ylamino) butanoic Acid]
< 50	COC[C@@H](F)CN(CCCCc1ccc2c(n1)NCCC2)CC[C@H](Nc1ncnc2c1cnn2C)C(=O)O [Compound 105, (S)-4-(((S)-2-fluoro-3-methoxypropyl) (4-(5,6,7,8-tetrahydro-1,8-naphthyridin-2-yl)butyl)amino)-2-((1-methyl-1H-pyrazolo[3,4-d]pyrimidin-4-yl)amino) butanoic Acid]
> 1000	O=C(O)[C@H](CCN(CCCCc1ccc2c(n1)NCCC2)CC(F)F)Nc1ncc(F)cn1 [Compound 121, (S)-4-((2,2-difluoroethyl) (4-(5,6,7,8-tetrahydro-1,8-naphthyridin-2-yl)butyl)amino)-2-((5-fluoropyrimidin-2-yl)amino) butanoic Acid]
50 to 250	O=C(O)[C@H](CCN(CCCCc1ccc2c(n1)NCCC2)CCC(F)F)Nc1ccnc(C(F)(F)F)n1 [Compound 134, (S)-4-((3,3-difluoropropyl) (4-(5,6,7,8-tetrahydro-1,8-naphthyridin-2-yl)butyl)amino)-2-((2-(trifluoromethyl)pyrimidin-4-yl)amino) butanoic Acid]
< 50	O=C(O)[C@H](CCN(CCCCc1ccc2c(n1)NCCC2)CCOc1ccc(F)cc1)Nc1ncc(C(F)(F)F)cn1 [Compound 139, (S)-4-((2-(4-fluorophenoxy)ethyl) (4-(5,6,7,8-tetrahydro-1,8-naphthyridin-2-yl)butyl)amino)-2-((5-(trifluoromethyl)pyrimidin-2-yl)amino) butanoic Acid]

Second part, the molecule before the results:

Structure (SMILES)	IC50 [nM]
CO[C@H](C)CN(CCCCc1ccc2c(n1)NCCC2)CC[C@H](Nc1nc(C)nc2cc(F)ccc12)C(=O)O [Compound 65, (S)-2-((7-fluoro-2-methylquinazolin-4-yl)amino)-4-(((R)-2-methoxypropyl) (4-(5,6,7,8-tetrahydro-1,8-naphthyridin-2-yl)butyl)amino) butanoic Acid]	< 50
COc1ccc2c(N[C@@H](CCN(CCCF)CCCCc3ccc4c(n3)NCCC4)C(=O)O)ncnc2c1 [Compound 41, (S)-4-((3-fluoropropyl) (4-(5,6,7,8-tetrahydro-1,8-naphthyridin-2-yl)butyl)amino)-2-((7-methoxyquinazolin-4-yl)amino) butanoic Acid]	< 50
O=C(O)[C@H](CCN(CCCCc1ccc2c(n1)NCCC2)CC(F)F)Nc1ncnc2[nH]ncc12 [Compound 112, (S)-2-((1H-pyrazolo[3,4-d]pyrimidin-4-yl)amino)-4-((2,2-difluoroethyl) (4-(5,6,7,8-tetrahydro-1,8-naphthyridin-2-yl)butyl)amino) butanoic Acid]	250 to 1000
COCCN(CCCCc1ccc2c(n1)NCCC2)CC[C@H](Nc1nc(C(F)(F)F)nc2ccccc12)C(=O)O [Compound 14, (S)-4-((2-methoxyethyl) (4-(5,6,7,8-tetrahydro-1,8-naphthyridin-2-yl)butyl)amino)-2-((2-(trifluoromethyl)quinazolin-4-yl)amino) butanoic Acid]	< 50
CO[C@H](C)CN(CCCCc1ccc2c(n1)NCCC2)CC[C@H](Nc1ccnc(-c2ccccc2)n1)C(=O)O [Compound 73, (S)-4-(((R)-2-methoxypropyl) (4-(5,6,7,8-tetrahydro-1,8-naphthyridin-2-yl)butyl)amino)-2-((2-phenylpyrimidin-4-yl)amino) butanoic Acid]	< 50
Cc1nc(N[C@@H](CCN(CCCCc2ccc3c(n2)NCCC3)CC2CC(F)(F)C2)C(=O)O)c2ccc(F)cc2n1 [Compound 33, (S)-4-(((3,3-difluorocyclobutyl)methyl) (4-(5,6,7,8-tetrahydro-1,8-naphthyridin-2-yl)butyl)amino)-2-((7-fluoro-2-methylquinazolin-4-yl)amino) butanoic Acid]	< 50
COCCN(CCCCc1ccc2c(n1)NCCC2)CC[C@H](Nc1ccnc2ccccc12)C(=O)O [Compound 36, (S)-4-((2-methoxyethyl) (4-(5,6,7,8-tetrahydro-1,8-naphthyridin-2-yl)butyl)amino)-2-(quinolin-4-ylamino) butanoic Acid]	> 1000
CS(=O)(=O)CCN(CCCCc1ccc2c(n1)NCCC2)CC[C@H](Nc1ncc(C(F)(F)F)cn1)C(=O)O [Compound 102, (S)-4-((2-(methylsulfonyl)ethyl) (4-(5,6,7,8-tetrahydro-1,8-naphthyridin-2-yl)butyl)amino)-2-((5-(trifluoromethyl)pyrimidin-2-yl)amino) butanoic Acid]	> 1000
COCCN(CCCCc1ccc2c(n1)NCCC2)CC[C@H](Nc1ncnc2ncccc12)C(=O)O [Compound 11, (S)-4-((2-methoxyethyl) (4-(5,6,7,8-tetrahydro-1,8-naphthyridin-2-yl)butyl)amino)-2-(pyrido[2,3-d]pyrimidin-4-ylamino) butanoic Acid]	< 50
O=C(O)[C@H](CCN(CCCCc1ccc2c(n1)NCCC2)C1CC1)Nc1ncc(C(F)(F)F)cn1 [Compound 114, (S)-4-(cyclopropyl(4-(5,6,7,8-tetrahydro-1,8-naphthyridin-2-yl)butyl)amino)-2-((5-(trifluoromethyl)pyrimidin-2-yl)amino) butanoic Acid]	< 50
